Reference: patent publication US20250170090A1, “METHOD FOR PREVENTING OR TREATING DISEASE OR DISORDER ASSOCIATED WITH ANTINEOPLASTIC AGENT” (ONQUALITY PHARMACEUTICALS CHINA LTD., priority 2022, published 2025)
Read-outs that look alike come from different tables or passages of the source.

Columns and labels:
HUVEC cells = assay: CCK-8 cell viability: alleviation of proliferative toxicity of anti-tumor agents on HUVEC cells (Tables 7-1, 7-2); assay type: cell-based; settings: for activation at 100 µM: Homo sapiens, 24 h, percentage increase in viable cells vs anti-tumor agent alone, read-out: Response rate % (average)
In short: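 Viability was measured by CCK-8 after 24-48 h of culture. Cells received anti-tumor agent in DMSO with or without co-added NO-NSAID (dissolved in ethanol or sterile water), and results were corrected against the matching NO-NSAID solvent control.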

[1] = system: hand-foot syndrome induced by anti-tumor agents; assay: Prevention of hand-foot syndrome induced by anti-tumor agents in rats, NO-NSAID ointment on hind paws (Table 2-2); assay type: in vivo, SD rats; settings: Rattus norvegicus, topical, 120 h, Sorafenib 80 mg/kg once a day, Days 5, read-out: Control rate
In short: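 Female SD rats (8 weeks, ~200 g; 10/group) received anti-tumour agents by daily oral gavage in Cremophor EL:ethanol 1:1 diluted ~3× with PBS. NO-NSAID or blank ointment was applied to hind paws once daily, 4 h restrained, then wiped off. Control rate = blank-group minus treated-group hand-foot syndrome incidence.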

[2] = Afatinib (10 μM), NO-NSAID 100 μM
[3] = Cabozantinib (5 μM), NO-NSAID 100 μM
[4] = Dabrafenib (10 μM), NO-NSAID 100 μM
[5] = Everolimus (5 μM), NO-NSAID 100 μM
[6] = Infigratinib (15 μM), NO-NSAID 100 μM
[7] = Lapatinib (5 μM), NO-NSAID 100 μM
[8] = Lenvatinib (10 μM), NO-NSAID 100 μM
[9] = Olmutinib (10 μM), NO-NSAID 100 μM
[10] = Regorafenib (5 μM), NO-NSAID 100 μM
[11] = Selumetinib (5 μM), NO-NSAID 100 μM
[12] = Sorafenib (5 μM), NO-NSAID 100 μM
[13] = Sunitinib (5 μM), NO-NSAID 100 μM

## CC(C)Cc1ccc(C(C)C(=O)OCO/N=[N+](\[O-])N(C)C)cc1 (stereo not drawn) [Compound A4]
HUVEC cells; Afatinib (10 μM), NO-NSAID 0.1 μM
  NO-NSAID response rate % (average): 18%
HUVEC cells; Afatinib (10 μM), NO-NSAID 1 μM
  NO-NSAID response rate % (average): 35%
HUVEC cells; [2]
  NO-NSAID response rate % (average): 70%
  activation at 100 µM: 70%
HUVEC cells; Afatinib (10 μM), NO-NSAID 500 μM
  NO-NSAID response rate % (average): 14%
HUVEC cells; Cabozantinib (5 μM), NO-NSAID 0.1 μM
  NO-NSAID response rate % (average): 3%
HUVEC cells; Cabozantinib (5 μM), NO-NSAID 1 μM
  NO-NSAID response rate % (average): 9%
HUVEC cells; [3]
  NO-NSAID response rate % (average): 13%
  activation at 100 µM: 13%
HUVEC cells; Cabozantinib (5 μM), NO-NSAID 500 μM
  NO-NSAID response rate % (average): 11%
HUVEC cells; Dabrafenib (10 μM), NO-NSAID 0.1 μM
  NO-NSAID response rate % (average): 20%
HUVEC cells; Dabrafenib (10 μM), NO-NSAID 1 μM
  NO-NSAID response rate % (average): 34%
HUVEC cells; [4]
  NO-NSAID response rate % (average): 33%
  activation at 100 µM: 33%
HUVEC cells; Dabrafenib (10 μM), NO-NSAID 500 μM
  NO-NSAID response rate % (average): 41%
HUVEC cells; Everolimus (5 μM), NO-NSAID 0.1 μM
  NO-NSAID response rate % (average): 10%
HUVEC cells; Everolimus (5 μM), NO-NSAID 1 μM
  NO-NSAID response rate % (average): −2%
HUVEC cells; [5]
  NO-NSAID response rate % (average): 1%
  activation at 100 µM: 1%
HUVEC cells; Everolimus (5 μM), NO-NSAID 500 μM
  NO-NSAID response rate % (average): 4%
HUVEC cells; Anlotinib (5 μM), NO-NSAID 100 μM
  activation at 100 µM: 67%
HUVEC cells; Apatinib (10 μM), NO-NSAID 100 μM
  activation at 100 µM: 52%
HUVEC cells; Axitinib (10 μM), NO-NSAID 100 μM
  activation at 100 µM: 39%
HUVEC cells; Dacomitinib (5 μM), NO-NSAID 100 μM
  activation at 100 µM: 71%
HUVEC cells; Encorafenib (5 μM), NO-NSAID 100 μM
  activation at 100 µM: 59%
HUVEC cells; Erdafitinib (10 μM), NO-NSAID 100 μM
  activation at 100 µM: 45%
HUVEC cells; Famitinib (5 μM), NO-NSAID 100 μM
  activation at 100 µM: 69%
HUVEC cells; Fruquintinib (10 μM), NO-NSAID 100 μM
  activation at 100 µM: 62%
HUVEC cells; Gefitinib (10 μM), NO-NSAID 100 μM
  activation at 100 µM: 42%
HUVEC cells; [6]
  activation at 100 µM: 30%
  NO-NSAID response rate % (average): 30%
HUVEC cells; [7]
  activation at 100 µM: 30%
  NO-NSAID response rate % (average): 30%
HUVEC cells; [8]
  activation at 100 µM: 74%
  NO-NSAID response rate % (average): 74%
HUVEC cells; [9]
  activation at 100 µM: 28%
  NO-NSAID response rate % (average): 28%
HUVEC cells; [10]
  activation at 100 µM: 74%
  NO-NSAID response rate % (average): 74%
HUVEC cells; [11]
  activation at 100 µM: 34%
  NO-NSAID response rate % (average): 34%
HUVEC cells; [12]
  activation at 100 µM: 76%
  NO-NSAID response rate % (average): 76%
HUVEC cells; [13]
  activation at 100 µM: 34%
  NO-NSAID response rate % (average): 34%
HUVEC cells; Vemurafenib (5 μM), NO-NSAID 100 μM
  activation at 100 µM: 58%
HUVEC cells; Infigratinib (15 μM), NO-NSAID 0.1 μM
  NO-NSAID response rate % (average): 23%
HUVEC cells; Infigratinib (15 μM), NO-NSAID 1 μM
  NO-NSAID response rate % (average): 39%
HUVEC cells; Infigratinib (15 μM), NO-NSAID 500 μM
  NO-NSAID response rate % (average): 18%
HUVEC cells; Lapatinib (5 μM), NO-NSAID 0.1 μM
  NO-NSAID response rate % (average): 20%
HUVEC cells; Lapatinib (5 μM), NO-NSAID 1 μM
  NO-NSAID response rate % (average): 17%
HUVEC cells; Lapatinib (5 μM), NO-NSAID 500 μM
  NO-NSAID response rate % (average): 28%
HUVEC cells; Lenvatinib (10 μM), NO-NSAID 0.1 μM
  NO-NSAID response rate % (average): 24%
HUVEC cells; Lenvatinib (10 μM), NO-NSAID 1 μM
  NO-NSAID response rate % (average): 15%
HUVEC cells; Lenvatinib (10 μM), NO-NSAID 500 μM
  NO-NSAID response rate % (average): 14%
HUVEC cells; Olmutinib (10 μM), NO-NSAID 0.1 μM
  NO-NSAID response rate % (average): 25%
HUVEC cells; Olmutinib (10 μM), NO-NSAID 1 μM
  NO-NSAID response rate % (average): 38%
HUVEC cells; Olmutinib (10 μM), NO-NSAID 500 μM
  NO-NSAID response rate % (average): 30%
HUVEC cells; Regorafenib (5 μM), NO-NSAID 0.1 μM
  NO-NSAID response rate % (average): 29%
HUVEC cells; Regorafenib (5 μM), NO-NSAID 1 μM
  NO-NSAID response rate % (average): 26%
HUVEC cells; Regorafenib (5 μM), NO-NSAID 500 μM
  NO-NSAID response rate % (average): 26%
HUVEC cells; Selumetinib (5 μM), NO-NSAID 0.1 μM
  NO-NSAID response rate % (average): 35%
HUVEC cells; Selumetinib (5 μM), NO-NSAID 1 μM
  NO-NSAID response rate % (average): 33%
HUVEC cells; Selumetinib (5 μM), NO-NSAID 500 μM
  NO-NSAID response rate % (average): 41%
HUVEC cells; Sorafenib (5 μM), NO-NSAID 0.1 μM
  NO-NSAID response rate % (average): 4%
HUVEC cells; Sorafenib (5 μM), NO-NSAID 1 μM
  NO-NSAID response rate % (average): 17%
HUVEC cells; Sorafenib (5 μM), NO-NSAID 500 μM
  NO-NSAID response rate % (average): 16%
HUVEC cells; Sunitinib (5 μM), NO-NSAID 0.1 μM
  NO-NSAID response rate % (average): 19%
HUVEC cells; Sunitinib (5 μM), NO-NSAID 1 μM
  NO-NSAID response rate % (average): 20%
HUVEC cells; Sunitinib (5 μM), NO-NSAID 500 μM
  NO-NSAID response rate % (average): 20%
[1]; ointment 0.50% wt
  responders at 0.5 %: 42.9%
[1]; ointment 2% wt
  responders at 2 %: 71.4%
